Measurements from patent publication US6416965B2, “Screening methods for presqualene disphosphate analogs” (Brigham and Women's Hospital, priority 1997, dated 2002).

How the values were obtained:
human neutrophils = assay: FMLP-stimulated 1,4,5-inositol triphosphate (IP3) formation as surrogate for phospholipase C activity; format: cell-based; details: nM-μM amounts
Protocol: (§1) Neutrophils (10^7/500 μl) were electroporated (1.65 kV/cm, 250 μF, Ω∞, Invitrogen Electroporator VI) at 0° C. in the presence of 10−^9-10−^6 M compound VI, VIII, FDP, FMP, squalene or vehicle (ethanol 0.2%). After electroporation, cells, in cytochrome c (0.7 mg/ml), were exposed (10 minutes, 37° C.) to either cytochalasin b (5 μg/mL) and FMLP (10^−7 M)(a) or PMA ((10^−7 M)(b) and supernatants monitored at […]. Electroporation gave a 49.9% reduction in FMLP-stimulated NADPH oxidase compared to naive cells. Values (FIGS. 4a and 4b) represent the mean±SEM for n≧3, d≧6. For adhesion (FIGS. 4c and 4d), changes in light transmittance were monitored (as in Fiore, S., Nicolaou, K. C., Caulfield, T., Kataoka, H. & Serhan, C. N. Biochem. J. 266, 25-31 (1990), the teachings of which are incorporated herein by reference) after addition of compounds VI, VIII (1.6 μM) or vehicle (0.5 min) and FMLP (0.5-5 μM) (2.5 min). Cell viability remained>99%. Values represent the mean±SEM for n=3, d=9. 1,4,5-inositol-triphosphate levels were determined (Amersham) in fresh PMN (10^7 cells) exposed (5 minutes, 37° C.) to compound VI, compound VIII (1 μM) or vehicle and stimulated with FMLP (10^−7M, 37° C.) (as in FIG. 4e). % Inhibition after 10 second exposure to FMLP is reported as mean±SEM for n=4, d≧8. *p <0.05 in Student's paired t-test compared with control, while “NS” indicates no significant change compared to incubations in the presence of vehicle (ethanol 0.2%) alone. Stereochemistry of PSDP and PSMP (FIG. 4f) were assigned by routine methods (Poulter, C. D. and Rilling, H. C. Acc. Chem. Res. 11, 307-313, (1978), the teachings of which are hereby incorporated by reference).
In addition to PLD, phospholipase C plays a critical role in intracellular signaling via the hydrolysis of inositol lipids to diacyl glyceride (DAG) and inositol trisphosphate (IP3) to effect a cascade of cellular events in response to pro-inflammatory stimuli. DAG activates protein kinases and is converted, in part, to phosphatidic acid by DAG kinase. Therefore, PLC together with DAG kinase provides a second major source of phosphatidic acid in human neutrophils (Agwu, DE, et al., Journal of Clinical Investigation 1991; 88:531). […] To this end, the impact of PSDP on fMLP-stimulated IP3 formation as a surrogate for phospholipase C activity was examined (FIG. 4e).
Amersham's D-myo-inositol 1,4,5-trisphosphate (IP3) [^3H] assay was used for this procedure (Amersham code TRK 1000, including product assay, the contents of which are incorporated herein by reference). The assay is based on procedures developed by Takata S. et al. J. Clin. Invest. 93:499 (1994) and Dillon S. B. et al. J. Biol. Chem. 262:11546 (1987), the contents of which are incorporated herein by reference in their entirety. [drawing 24] […]

[1] = system: electroporated neutrophils; assay: Superoxide anion generation (NADPH oxidase activity) by electroporated neutrophils; format: cell-based, human
From the text: To test the impact of compounds VI and VIII on neutrophil responses, the isolated lipids were introduced into neutrophils by electroporation prior to determining NADPH oxidase activity. […] Prenyl cysteine analogues can disrupt G-protein interaction with activated FMLP receptors (Scheer, A. & Gierschik, P. Biochemistry. 34,4952-4961 (1995), the teachings of which are incorporated herein by reference); therefore to determine compound VI's level of action, neutrophil superoxide anion generation was examined in the presence of phorbol 12-myristate 13-acetate (PMA), a potent trigger for O2- production which bypasses cell surface receptors to stimulate protein kinase C and subsequent NADPH assembly (see for example, Baggiolini, M., Boulay, F., Badwey, J. A. & Curnutte, J. T. FASEB J. 7, […] (1993); FIG. 3c).
After electroporation, cells in cytochrome c (0.7 mg/ml) were exposed (10 min, 37° C.) to PMA (10^−7 M), FMLP (10^−7 M) plus cytochalasin b (15 μg/ml), compound VI (1 μM) or compound VIII (1 μM) and supernatants monitored at 550 nm. Values represent the mean±SEM for n≧4.
as §1

neutrophils = assay: Neutrophil homotypic adhesion (aggregation, light transmittance); format: cell-based, human
Protocol: as §1

neutrophil sonicates = assay: Superoxide anion generation by neutrophil sonicates (post-nuclear supernatants, cytochrome c reduction); format: biochemical, human; details: arachidonic acid C20:4 75 μM, phosphatitic acid C10:0 100 μM
Protocol: Neutrophil lipids were saponified (10% KOH in methanol, 37° C., 30 min), extracted (Van Dessel, G. A. F., Lagrou, A. R. Hilderson, H. J. J. & Dierick, W. S. H. In: CRC Handbook of Chromatography (eds Mukherjee, K. D., Weber, N. & Sherma, J.) 321-337 (CRC Press, Boca Raton, 1993)) and separated by CC4 silica (1 gm/10^8 PMN) column chromatography as in FIG. 1f. […] After 2 min (37° C.) in a thermal-jacketed cuvette, β-NAPH (200 μM) was added to initiate reactions and absorbance (550 nm) was monitored at 15 second intervals. […]
To determine O2- production (FIGS. 1a-c), post-nuclear supernatants from neutrophils after sonication (0.1-0.5 mg protein/ml) (as generally described in Bromberg, Y. & Pick, E. Cell. Immunol. 88, 213-221 (1984), the teachings of which are incorporated herein by reference), 100 μM phosphatitic acid (C10:0, Avanti Polar Lipids, Inc.) and lipid extracts (0.1% ethanol) were added to cytochrome c (60 μM), sucrose (170 mM), EGTA (1 mM), FAD (10 μM), NaN3 (2 mM) and either superoxide dismutase (30 ug/ml) or H20 at 0° C. […] After 2 min (37° C.) in a thermal-jacketed cuvette, B-NADPH (200 μM) was added to initiate reactions and absorbance (550 nm) was monitored at 15 second intervals or following termination (10 minutes, 0° C.). […]

PMN = assay: 32PO4 incorporation into non-saponifiable lipids of PMN labeled with γ-32PO4-ATP; format: cell-based, human; details: GM-CSF 25 ng/ml, 60 min, 37° C.; relative to cells without agonist
Protocol: To determine FMLP (10−^7 M)-induced changes in compound VI and VIII mass (inset), radioactive compounds were eluted and inorganic phosphorus levels were measured. In addition, PMN labeled with γ-^32PO4-ATP were incubated in the presence or absence of GM-CSF (25 ng/ml, 60 min, 37° C.)(b) with ^32P content quantitated as above. Values represent the mean±SEM for duplicate determinations from at least two separate PMN. The percent increase after exposure to GM-CSF is relative to parallel incubations with cells in the absence of agonist. **p<0.0005 and * p<0.03 by Student's paired t-test.

Compound: CC(C)=CCC/C(C)=C/CC/C(C)=C/C1C(COP(=O)(O)O)C1(C)CC/C=C(\C)CCC=C(C)C (stereo in doubt) [Compound VIII, presqualene monophosphate]
- inhibition of 1,4,5-inositol-triphosphate formation (human neutrophils): not
- influence on PMA-stimulated O2- production ([1]; PMA 10^-7 M, electroporated neutrophils): not significantly influenced
- inhibition of neutrophil superoxide anion generation ([1]; nM-μM amounts): not
- FMLP-triggered O2- production in the presence of the compound ([1]; nM-μM quantities, electroporated neutrophils): unaltered
- stimulation of O2- production by the compound alone ([1]; no agonist, 1 μM (FIG. 3c)): neither compound VI nor VIII alone stimulated
- stimulation of adhesion by the compound alone (neutrophils; no agonist): neither compound VI nor VIII alone stimulated
- inhibition of FMLP-stimulated homotypic adhesion (neutrophils; μM levels): not

Compound: CCCCC/C=C\C/C=C\C/C=C\C/C=C\CCCC(=O)O [arachidonic acid]
- rate of superoxide anion generation (O2- production) (neutrophil sonicates): 1.38 nmoles/mg protein/min

Compound: CCCCCCCCCC(=O)OC[C@H](COP(=O)(O)O)OC(=O)CCCCCCCCC [phosphatitic acid]
- rate of superoxide anion generation (O2- production) (neutrophil sonicates): 1.34 nmoles/mg protein/min

Compound: GM-CSF: granulocyte/monocyte-colony stimulating factor, cytokine
- increase of 32PO4 incorporation into compound VI (PMN): 45.0%
- increase of 32PO4 incorporation into compound VIII (PMN): 84.1%
